Test results from patent publication US20260217688A1, “INHIBITORS OF JAK2” (Llydaw Therapeutics, Inc., priority 2022, published 2026).

How the values were obtained:
JAK2 JH2 = target: T1, JAK2 JH2 (Homo sapiens, UniProt O60674); assay: JAK2 JH2 TR-FRET Assay; type: binding; conditions: JAK2 JH2 1 nM, Tracer ZE84-0003 10 nM
T1 construct: Enzyme: JAK2 JH2, His-Avi-Tag, Biotin-Labeled (BPS Bioscience, Cat #79074) 1 nM; His; purchased BPS Bioscience 79074
Protocol: Assay Buffer 1×: • 20 mM HEPES pH 7.2-7.4; • 10 mM MgCl2; • 0.015% Brij-35; • 2 mM DTT; • 0.05 mg/ml BSA.
Final assay concentrations: • DMSO: 0.25%; • Streptavidin Tb-cryptate (Cisbio, Cat #610SATLB) 0.2 nM; • Enzyme: JAK2 JH2, His-Avi-Tag, Biotin-Labeled (BPS Bioscience, Cat #79074) 1 nM; • Probe: Tracer ZE84-0003 (ChemRar) 10 nM.
Materials: • Reaction plate: ProxiPlate-384 Plus White Plate (PerkinElmer); • Dilution plate: Diamond Well Plate (Axygen, Cat #P-384-120 SQ-C-S); • Compounds plate: Diamond Well Plate (Axygen, Cat #P-384-120 SQ-C-S).
Assay protocol: • 1. Prepare 400× solutions of compounds in DMSO into Compounds plate; • 2. Prepare Dilution plate: add 39 μL of 1× Assay buffer per well of Dilution plate; • 3. Prepare 2×Tb-cryptate mix in 1× Assay buffer. Add 10 μL of 2×Tb-cryptate mix to K-(Tb-cryptate and Probe without Enzyme) wells and blank (Tb-cryptate without Probe and Enzyme) wells; • 4. Add JAK2 JH2 into the rest of 2×Tb-cryptate mix to make 2×JAK2 JH2+Tb-cryptate mix. Add 10 μL per well into Reaction plate; • 5. Centrifuge plate at 200 g for 1 min; • 6. Dilute 1 μL of 400× compounds in 39 μL 1× Assay buffer in Dilution plate; • 7. Add 2 μL of 10× compounds from Dilution plate to Reaction plate with 10 μL of JAK2 JH2+Tb-cryptate mix; • 8. Centrifuge plate at 200 g for 1 min; • 9. Pre-incubate Reaction plate with compounds 15 min; • 10. Prepare 2.5× Tracer mix; • 11. Add 8 μL of 2.5× Tracer mix into appropriate wells of Reaction plate; • 12. Centrifuge plate at 800 g for 3 min; • 13. Incubate at rt for 15 min; • 14. Measure Fluorescence using Microplate Reader (Ex: TR, Em1/Em2: 482/520). The results of this assay are shown in the Table B. The values of EC50 shown as a letters A-D, where: A≤0.01 μM; 0.01 μM<B≤0.05 μM; 0.05 μM<C≤0.1 μM; D>0.1.

[1] = Proliferation inhibition assay (CellTiter-Glo), Ba/F3 JAK2 wt; type: cell-based; conditions: mouse, Ba/F3 (JAK2 wt) cells
Protocol: (§1) Ba/F3 (JAK2 wt) (ABM, T3076) cells and Ba/F3 (JAK2 V617F) (WuXi AppTec) cells were grown in RPMI-1640 (Gibco, cat. number 21870) supplemented with 10% FBS (Hyclone Laboratories Inc, Cat #SV30160.03), 1× Antibiotic-antimycotic (Gibco, Cat #15240-062), 2× Sodium pyruvate (Paneco, cat #F023), 2× Essential amino acids (Paneco, cat #F115/100), 1× Non-Essential amino acids (Paneco, cat #F116) at 37° C. in 5% CO2 atmosphere.
(§2) For the proliferation inhibition assay Ba/F3 (JAK2 wt) and Ba/F3 (JAK2 V617F) cells were seeded into a CellBIND® 384-well Flat Clear Bottom Black Polystyrene Microplates (Corning, USA, Cat #3770) at a density of 4000 cells per well in complete culture medium with or without 10 ng/ml rmIL-3 (RD systems, USA, Cat #403-ML-025) using Biomek FX/NX (384) liquid handler, 45 μl of cell suspension in complete culture medium per well. 500× compound's stocks in DMSO (Sigma Cat #D2650) were prepared in compounds plate (Diamond Well Plate, Axigen, Cat #P-384-120 SQ-C-S) applying Biomek 2000. 1 μl of 500× compounds stock was added to 49 μl of complete culture medium into Dilution plate (Diamond Well Plate, Axigen, Cat #P-384-120 SQ-C-S), mixed and then 5 μl of 10× compounds solution was transferred to cells using Biomek FX/NX (384) liquid handler. The centrifugation at 100 g for 1 min at Eppendorf 5810 followed. Final DMSO concentration in assay was 0.2%. All treatments were performed in technical and biological duplicates. Treated cells were incubated for 72 h at 37° C. with 5% CO2.
(§3) After 3 days of incubation, CellTiter-Glo Luminescent Cell Viability Assay (Promega) was performed. 10 μl of CellTiter-Glo (Promega, CAT #G7572) was added to the cells using Biomek FX/NX (384) liquid handler. The assay plate was centrifuged at 100 g for 1 min and luminescence signal was measured using Microplate Reader (CLARIOStar).

[2] = Proliferation inhibition assay (CellTiter-Glo), Ba/F3 JAK2 V617F; type: cell-based; conditions: mouse, Ba/F3 (JAK2 V617F) cells; with 10 ng/ml rmIL-3, 72 h; read-out: Ba/F3 JAK2 V617F + IL3, CC50 3 days
Protocol: as §1, §2, §3

Ba/F3 (JAK2 V617F) cells = assay: as above; type: cell-based; conditions: Mus musculus, BaF3; without IL3, 72 h; read-out: Ba/F3 JAK2 V617F, CC50 3 days
Protocol: as §1, §2, §3

[3] = with 10 ng/ml rmIL-3, 72 h, read-out: Ba/F3 JAK2 wt + IL3, CC50 3 days
[4] = without IL3, 72 h, read-out: Ba/F3 JAK2 wt, CC50 3 days

T1 sequence (O60674 545-809 limits assumed): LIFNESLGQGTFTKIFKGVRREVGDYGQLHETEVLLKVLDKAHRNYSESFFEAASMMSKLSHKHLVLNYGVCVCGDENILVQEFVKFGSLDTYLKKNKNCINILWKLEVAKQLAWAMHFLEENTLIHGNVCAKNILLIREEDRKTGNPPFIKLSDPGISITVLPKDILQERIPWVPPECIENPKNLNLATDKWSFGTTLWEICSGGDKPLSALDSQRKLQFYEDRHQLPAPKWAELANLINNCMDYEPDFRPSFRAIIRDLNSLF

Row | SMILES | EC50 (JAK2 JH2) [µM] | CC50 at 72 h [1, 3] [µM] | CC50 at 72 h [1, 4] [µM] | CC50 at 72 h [2] [µM] | CC50 (Ba/F3 (JAK2 V617F) cells) [µM]
1 | COc1c(Nc2nc(Nc3cnn(-c4ccccc4)c3)ncc2C(N)=O)cccc1-c1ncn(C)n1 [Compound 6, 4-((2-Methoxy-3-(1-methyl-1H-1,2,4-triazol-3-yl)phenyl)amino)-2-((1-phenyl-1H-pyrazol-4-yl)amino)pyrimidine-5-carboxamide] | 0.01 to 0.05 | > 10 | > 10 | ≤ 0.5 | ≤ 0.5
2 | COc1c(Nc2nc(Nc3cnn(C4CCNCC4)c3)ncc2C(N)=O)cccc1-c1ncn(C)n1 [Compound 7, 4-((2-Methoxy-3-(1-methyl-1H-1,2,4-triazol-3-yl)phenyl)amino)-2-((1-(piperidin-4-yl)-1H-pyrazol-4-yl)amino)pyrimidine-5-carboxamide 2,2,2-trifluoroacetate] | 0.01 to 0.05 | > 10 | > 10 | > 10 | 1 to 5
3 | COc1c(Nc2nc(Nc3cnn(C4CCNCC4)c3)ncc2C(N)=O)cccc1-c1nc2ccccc2o1 [Compound 8, 4-[3-(1,3-benzoxazol-2-yl)-2-methoxy-anilino]-2-[[1-(4-piperidyl)pyrazol-4-yl]amino]pyrimidine-5-carboxamide] | ≤ 0.01 | > 10 | > 10 | 5 to 10 | 1 to 5
4 | COc1c(Nc2nc(Nc3cnn(C4CCCCC4)c3)ncc2C(N)=O)cccc1-c1ncn(C)n1 [Compound 11, 2-[(1-cyclohexylpyrazol-4-yl)amino]-4-[2-methoxy-3-(1-methyl-1,2,4-triazol-3-yl)anilino]pyrimidine-5-carboxamide] | ≤ 0.01 | 1 to 5 | 1 to 5 | ≤ 0.5 | ≤ 0.5
5 | COc1c(Nc2nc(Nc3cnn(C)c3)ncc2C(N)=O)cccc1-c1nc2ccccc2o1 [Compound 12, 4-[3-(1,3-benzoxazol-2-yl)-2-methoxy-anilino]-2-[(1-methylpyrazol-4-yl)amino]pyrimidine-5-carboxamide] | 0.01 to 0.05 | > 10 | > 10 | 1 to 5 | ≤ 0.5
6 | COc1c(Nc2nc(Nc3cnn(C4CCOCC4)c3)ncc2C(N)=O)cccc1-c1ncn(C)n1 [Compound 14, 4-[2-methoxy-3-(1-methyl-1,2,4-triazol-3-yl)anilino]-2-[(1-tetrahydropyran-4-ylpyrazol-4-yl)amino]pyrimidine-5-carboxamide] | ≤ 0.01 | > 10 | > 10 | 5 to 10 | ≤ 0.5
7 | COc1c(Nc2nc(Nc3cnn(C(C)C)c3)ncc2C(N)=O)cccc1-c1nc2ccccc2o1 [Compound 16, 4-[3-(1,3-benzoxazol-2-yl)-2-methoxy-anilino]-2-[(1-isopropylpyrazol-4-yl)amino]pyrimidine-5-carboxamide] | 0.01 to 0.05 | 5 to 10 | > 10 | 0.5 to 1 | ≤ 0.5
8 | COc1c(Nc2nc(Nc3c(C)nn(C)c3C)ncc2C(N)=O)cccc1-c1ncn(C)n1 [Compound 17, 4-[2-methoxy-3-(1-methyl-1,2,4-triazol-3-yl)anilino]-2-[(1,3,5-trimethylpyrazol-4-yl)amino]pyrimidine-5-carboxamide] | > 0.1 | > 10 | > 10 | > 10 | > 10
9 | CCn1nc(C)c(Nc2ncc(C(N)=O)c(Nc3cccc(-c4ncn(C)n4)c3OC)n2)c1C [Compound 18, 2-[(1-ethyl-3,5-dimethyl-pyrazol-4-yl)amino]-4-[2-methoxy-3-(1-methyl-1,2,4-triazol-3-yl)anilino]pyrimidine-5-carboxamide] | > 0.1 | > 10 | > 10 | > 10 | 5 to 10
10 | COc1c(Nc2nc(Nc3cnn(CC4CCCCC4)c3)ncc2C(N)=O)cccc1-c1ncn(C)n1 [Compound 22, 2-[[1-(cyclohexylmethyl)pyrazol-4-yl]amino]-4-[2-methoxy-3-(1-methyl-1,2,4-triazol-3-yl)anilino]pyrimidine-5-carboxamide] | 0.01 to 0.05 | 5 to 10 | 5 to 10 | 1 to 5 | ≤ 0.5
11 | COc1c(Nc2nc(Nc3cnn(CCC(C)C)c3)ncc2C(N)=O)cccc1-c1ncn(C)n1 [Compound 24, 2-[(1-isopentylpyrazol-4-yl)amino]-4-[2-methoxy-3-(1-methyl-1,2,4-triazol-3-yl)anilino]pyrimidine-5-carboxamide] | 0.01 to 0.05 | 5 to 10 | > 10 | 0.5 to 1 | ≤ 0.5
12 | CCCCCCn1cc(Nc2ncc(C(N)=O)c(Nc3cccc(-c4ncn(C)n4)c3OC)n2)cn1 [Compound 26, 2-[(1-hexylpyrazol-4-yl)amino]-4-[2-methoxy-3-(1-methyl-1,2,4-triazol-3-yl)anilino]pyrimidine-5-carboxamide] | 0.01 to 0.05 | 5 to 10 | 5 to 10 | 0.5 to 1 | ≤ 0.5
13 | COc1c(Nc2nc(Nc3cnn(CCCN(C)C)c3)ncc2C(N)=O)cccc1-c1ncn(C)n1 [Compound 28, 2-[[1-[3-(dimethylamino)propyl]pyrazol-4-yl]amino]-4-[2-methoxy-3-(1-methyl-1,2,4-triazol-3-yl)anilino]pyrimidine-5-carboxamide] | > 0.1 | > 10 | > 10 | > 10 | 5 to 10
14 | COc1c(Nc2nc(Nc3cnn(CCN(CC(C)C)CC(C)C)c3)ncc2C(N)=O)cccc1-c1ncn(C)n1 [Compound 29, 2-(1-(2-(Diisobutylamino)ethyl)-1H-pyrazol-4-ylamino)-4-(2-methoxy-3-(1-methyl-1H-1,2,4-triazol-3-yl)phenylamino)pyrimidine-5-carboxamide] | > 0.1 | 5 to 10 | 1 to 5 | 1 to 5 | ≤ 0.5
15 | COc1c(Nc2nc(Nc3cnn(C45CC6CC(CC(C6)C4)C5)c3)ncc2C(N)=O)cccc1-c1ncn(C)n1 [Compound 30, 2-((1-(1-Adamantyl)-1H-pyrazol-4-yl)amino)-4-((2-methoxy-3-(1-methyl-1H-1,2,4-triazol-3-yl)phenyl)amino)pyrimidine-5-carboxamide] | 0.01 to 0.05 | 1 to 5 | 1 to 5 | 0.5 to 1 | ≤ 0.5
